Drawing on PubChem BioAssay (NCI), this text covers TGI for 7 molecules.

SMILES strings stand for the structures.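 In this assay, cells in 96-well plates receive the compound at five concentrations for 48 hours. Endpoints are linearly interpolated between the surrounding concentrations. TGI denotes the concentration required for complete inhibition of growth.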

Test systems include A549 NSCLC; CCRF-CEM leukemia; HOP-62 NSCLC; HOP-92 NSCLC; MCF7 breast; MDA-MB-231 breast; MOLT-4 leukemia; NCI-H23 lung; OVCAR-5 ovarian; SF-539 CNS; SK-MEL-2 melanoma; U251 CNS; UACC-257 melanoma; UO-31 renal; CAKI-1 renal; SF-268 CNS; SK-MEL-28 melanoma; SNB-19 CNS; SW-620 colon.
Experiment in all cases: NCI anticancer screen, dose series, 48 h

On to `COC(=O)CCc1ccc2c(c1)CC1(Cc3ccccc3C1)C2`, for which the TGI in the test on A549 NSCLC, in the test with CCRF-CEM leukemia, in the test with HOP-62 NSCLC, with HOP-92 NSCLC, in the test on MCF7 breast and in the test with MDA-MB-231 breast was more than 100 µM throughout. The TGI with MOLT-4 leukemia, in the test on NCI-H23 lung, in the test on OVCAR-5 ovarian, in the test with SF-539 CNS, in the test with SK-MEL-2 melanoma and with U251 CNS was more than 100 µM in each case. Besides, the TGI in the test with UACC-257 melanoma and in the test with UO-31 renal was more than 100 µM throughout.

Regarding `CNC(=O)C1CCCN1C(=O)C(Cc1cnc[nH]1)NC(=O)C1CCC(=O)N1` (configuration not stated), the TGI in the test on A549 NSCLC, in the test with CAKI-1 renal, in the test on CCRF-CEM leukemia, in the test on HOP-62 NSCLC, with HOP-92 NSCLC and in the test on MCF7 breast was more than 100 µM each time. Also, the TGI with MDA-MB-231 breast, with MOLT-4 leukemia, in the test on NCI-H23 lung, in the test with OVCAR-5 ovarian, with SF-268 CNS and in the test with SK-MEL-28 melanoma was more than 100 µM each time. Moreover, the TGI in the test on SNB-19 CNS, in the test on SW-620 colon, with U251 CNS and with UO-31 renal was more than 100 µM throughout.

Take `CS/C(=N\S(=O)(=O)c1cc(C)c(Cl)cc1Cl)NNc1cnc2ccccc2n1`: the TGI in the test with A549 NSCLC, with CAKI-1 renal, in the test on CCRF-CEM leukemia, in the test with HOP-62 NSCLC, in the test with HOP-92 NSCLC and in the test on MCF7 breast was more than 100 µM in each case. The TGI in the test with MDA-MB-231 breast, in the test on MOLT-4 leukemia, in the test with NCI-H23 lung, in the test with OVCAR-5 ovarian, with SF-268 CNS and in the test on SF-539 CNS was more than 100 µM throughout. Besides, the TGI with SK-MEL-28 melanoma, in the test with SNB-19 CNS, in the test with SW-620 colon, with U251 CNS, with UACC-257 melanoma and with UO-31 renal was more than 100 µM throughout.

For the molecule `NC(=O)CCC(CCC(N)=O)(CCC(N)=O)[N+](=O)[O-]`, the TGI in the test with A549 NSCLC, in the test on CAKI-1 renal, with HOP-92 NSCLC, in the test on MCF7 breast, with MDA-MB-231 breast and with MOLT-4 leukemia was more than 100 µM in each case. Also, the TGI in the test with NCI-H23 lung, with OVCAR-5 ovarian, with SF-268 CNS, in the test with SF-539 CNS, with SK-MEL-2 melanoma and with SNB-19 CNS was more than 100 µM throughout. Further, the TGI with SW-620 colon, in the test on U251 CNS, in the test on UACC-257 melanoma and in the test on UO-31 renal was more than 100 µM in each case.

For the molecule `CCC(CCN)(CCN)[N+](=O)[O-]`, the TGI in the test on A549 NSCLC, in the test with CAKI-1 renal, in the test on HOP-92 NSCLC, in the test with MCF7 breast, in the test on MDA-MB-231 breast and in the test on MOLT-4 leukemia was more than 100 µM throughout. In addition, the TGI in the test with OVCAR-5 ovarian, in the test on SF-268 CNS, with SF-539 CNS, in the test with SK-MEL-2 melanoma, in the test with SW-620 colon and with U251 CNS was more than 100 µM in each case. Further, the TGI in the test with UACC-257 melanoma is more than 100 µM.

As for `Cc1sc(Nc2ccccc2[N+](=O)[O-])c(C#N)c1C`, the TGI in the test on A549 NSCLC is more than 100 µM; in the test with CAKI-1 renal, more than 100 µM; in the test on CCRF-CEM leukemia, more than 100 µM; in the test with HOP-62 NSCLC, 76.2 µM; with HOP-92 NSCLC, 53 µM; in the test with MCF7 breast, more than 100 µM. Also, the TGI was 65.8 µM in the test with MDA-MB-231 breast; more than 100 µM in the test with MOLT-4 leukemia; 44.8 µM with NCI-H23 lung; more than 100 µM with OVCAR-5 ovarian; 61.8 µM with SF-268 CNS; 68.3 µM in the test on SF-539 CNS. For the same molecule, the TGI with SK-MEL-28 melanoma is more than 100 µM; in the test on SNB-19 CNS, 61.9 µM; in the test on U251 CNS, 62.6 µM; with UACC-257 melanoma it was more than 100 µM; in the test with UO-31 renal, more than 100 µM.

For `COC(=O)c1cc(C)ccc1C1CN=NC12Cc1cccc(C)c1C2=O` (configuration not stated), the TGI with A549 NSCLC was more than 100 µM; in the test with CAKI-1 renal it was more than 100 µM; with CCRF-CEM leukemia, 99 µM; in the test on HOP-62 NSCLC, more than 100 µM; in the test on HOP-92 NSCLC, more than 100 µM; with MCF7 breast, more than 100 µM. The TGI with MDA-MB-231 breast was 75.5 µM; in the test with MOLT-4 leukemia, 54.7 µM; with NCI-H23 lung, more than 100 µM; in the test with OVCAR-5 ovarian, 96.4 µM; in the test with SF-268 CNS, more than 100 µM; in the test with SF-539 CNS it was more than 100 µM. Further, the TGI in the test on SK-MEL-28 melanoma, in the test with SNB-19 CNS, in the test on SW-620 colon, with U251 CNS, in the test on UACC-257 melanoma and with UO-31 renal was more than 100 µM each time.
